Test results taken from patent US20230382950A1 (priority 2020, published 2023).
Read-outs that look alike come from different tables or passages of the source. *1 amine or outer side, *2 acyl side, *3 side chain or, on linkers, in order; H or OH if unused. Where a SMILES comes first, the peptide text is derived from it. Bridges are numbered along the chain shown (N, C = ends). [ ]: non-standard residue; d: D form. The star is where a group is joined. Ala(piperidin-4-yl) = O=C([C@H](CC1CCN([*:3])CC1)N[*:1])[*:2]; Malonyl(2,2-Me2,histaminyl) = CC(C)(C(=O)NCCc1cnc[nH]1)C(=O)*; dBip = N[C@H](Cc1ccc(-c2ccccc2)cc1)C(=O)O; Oic = O=C(O)[C@@H]1C[C@@H]2CCCC[C@@H]2N1; Phe(4-Br) = N[C@@H](Cc1ccc(Br)cc1)C(=O)O; hArg = N=C(N)NCCCC[C@H](N)C(=O)O; Pip = O=C(O)[C@@H]1CCCCN1; Nle = CCCC[C@H](N)C(=O)O

Legend:
[1] = target: T1, human Apelin receptor (Homo sapiens, UniProt P35414); assay: cAMP accumulation assay (HTRF), functional agonism, CHO cells stably expressing the human Apelin receptor; format: cell-based; details: for Emax: CHO
T1 sequence (P35414 1-380): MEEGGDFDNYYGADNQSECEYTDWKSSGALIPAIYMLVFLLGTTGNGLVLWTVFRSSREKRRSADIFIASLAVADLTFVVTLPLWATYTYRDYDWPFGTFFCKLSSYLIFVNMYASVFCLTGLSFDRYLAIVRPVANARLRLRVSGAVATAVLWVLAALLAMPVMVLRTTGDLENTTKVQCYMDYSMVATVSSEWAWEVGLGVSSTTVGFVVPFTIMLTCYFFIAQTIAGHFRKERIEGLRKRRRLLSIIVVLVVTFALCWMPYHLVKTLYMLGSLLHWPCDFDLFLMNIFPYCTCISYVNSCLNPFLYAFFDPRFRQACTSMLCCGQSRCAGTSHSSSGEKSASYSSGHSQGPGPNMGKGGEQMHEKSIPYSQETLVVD
Description: cAMP functional assay. cAMP production was quantified using the Homogeneous Time-Resolved Fluorescence (HTRF) cAMP dynamic-2 assay (Cisbio, France).

[2] = target: T1, human Apelin receptor; assay: β-arrestin accumulation assay, CHO-K1 cells overexpressing human Apelin receptor and β-arrestin (DiscoverRx); format: cell-based; design: host or cells: CHO-K1 cells
Description: β-arrestin assay. […] After 16 h incubation at 37° C. media was removed and cells were incubated at 37° C. for 90 min in serum free media containing increasing concentrations of test agonist. The assay reaction was stopped by adding detection reagent (DiscoveRx) and incubation for 60 min in the dark. Levels of receptor activation were then measured on a PheraStar fluorescence plate reader (BMG LabTech) and EC50 values were determined using Graphpad Prism.

Emax ([1]; read-out: Emax)	EC50 ([1]; read-out: pEC50 (converted))	EC50 ([2]; read-out: pEC50 (converted))	SMILES	EC50 [1]	Emax [1]	EC50 [2]
			CC(C)C[C@@H]1NC(=O)[C@@H](CCCNC(=N)N)NC(=O)[C@@H](NC(=O)[C@H](CCCCNC(=N)N)NC(=O)[C@H](CCC(N)=O)NC(=O)C(C)(C)C(=O)NCCc2c[nH]cn2)CC(=O)NCCCC[C@@H](C(=O)N[C@@H](CC2CCNCC2)C(=O)NCC(=O)N2[C@H](C(=O)N[C@@H](Cc3ccc(Br)cc3)C(=O)N3CCC[C@H]3C(=O)N[C@H](Cc3ccc(-c4ccccc4)cc3)C(=O)O)C[C@@H]3CCCC[C@@H]32)NC(=O)CNC1=O [Example 6] ({Malonyl(2,2-Me2,histaminyl)}-Q[hArg]D[dR]LGK[Ala(piperidin-4-yl)]G[Oic][Phe(4-Br)]P[dBip]-OH; lactam 3-7)	0.0126 µM	30.5%	> 100 µM
			CC(C)C[C@H](NC(=O)[C@@H](CCCNC(=N)N)NC(=O)[C@@H]1CCCCN1C(=O)[C@H](CCCCNC(=N)N)NC(=O)[C@H](CCC(N)=O)NC(=O)[C@@H](CCCNC(=N)N)NC(=O)C(C)(C)C(=O)NCCc1c[nH]cn1)C(=O)N[C@H]1CCC(=O)NCCCC[C@@H](C(=O)N2[C@H](C(=O)N[C@@H](Cc3ccc(Br)cc3)C(=O)N3CCC[C@H]3C(=O)N[C@H](Cc3ccc(-c4ccccc4)cc3)C(=O)O)C[C@@H]3CCCC[C@@H]32)NC(=O)[C@H](CC2CCNCC2)NC(=O)[C@H](Cc2c[nH]cn2)NC1=O [Example 1] ({Malonyl(2,2-Me2,histaminyl)}-[dR]Q[hArg][Pip][dR]LEH[Ala(piperidin-4-yl)]K[Oic][Phe(4-Br)]P[dBip]-OH; lactam 7-10)	0.00316 µM	70.5%	> 10 µM
28.4%	0.1 µM	> 10 µM	CCCC[C@H](NC(=O)[C@@H]1C[C@@H]2CCCC[C@@H]2N1C(=O)[C@@H]1CCCCNC(=O)CC[C@H](NC(=O)[C@H](CC(C)C)NC(=O)[C@@H](CCCNC(=N)N)NC(=O)[C@@H]2CCCCN2C(=O)[C@H](CCCCNC(=N)N)NC(=O)[C@H](CCC(N)=O)NC(=O)[C@@H](CCCNC(=N)N)NC(=O)C(C)(C)C(=O)NCCc2c[nH]cn2)C(=O)N[C@@H](Cc2ccc(Br)cc2)C(=O)N[C@@H](CC2CCNCC2)C(=O)N1)C(=O)N1CCC[C@H]1C(=O)N[C@H](Cc1ccc(-c2ccccc2)cc1)C(=O)O [Example 4] ({Malonyl(2,2-Me2,histaminyl)}-[dR]Q[hArg][Pip][dR]LE[Phe(4-Br)][Ala(piperidin-4-yl)]K[Oic][Nle]P[dBip]-OH; lactam 7-10)			
			CCCC[C@H](NC(=O)[C@@H]1C[C@@H]2CCCC[C@@H]2N1C(=O)[C@@H]1CCCCNC(=O)CC[C@H](NC(=O)[C@H](CC(C)C)NC(=O)[C@@H](CCCNC(=N)N)NC(=O)[C@@H]2CCCCN2C(=O)[C@H](CCCCNC(=N)N)NC(=O)[C@H](CCC(N)=O)NC(=O)[C@@H](CCCNC(=N)N)NC(=O)C(C)(C)C(=O)NCCc2c[nH]cn2)C(=O)N[C@@H](Cc2c[nH]cn2)C(=O)N[C@@H](CC2CCNCC2)C(=O)N1)C(=O)N1CCC[C@H]1C(=O)N[C@H](Cc1ccc(-c2ccccc2)cc1)C(=O)O [Example 2] ({Malonyl(2,2-Me2,histaminyl)}-[dR]Q[hArg][Pip][dR]LEH[Ala(piperidin-4-yl)]K[Oic][Nle]P[dBip]-OH; lactam 7-10)	0.0158 µM	31.2%	> 10 µM
48.2%	0.00501 µM	> 10 µM	CC(C)C[C@H](NC(=O)[C@@H](CCCNC(=N)N)NC(=O)[C@@H]1CCCCN1C(=O)[C@H](CCCCNC(=N)N)NC(=O)[C@H](CCC(N)=O)NC(=O)C(C)(C)C(=O)NCCc1c[nH]cn1)C(=O)N[C@H]1CCC(=O)NCCCC[C@@H](C(=O)N2[C@H](C(=O)N[C@@H](Cc3ccc(Br)cc3)C(=O)N3CCC[C@H]3C(=O)N[C@H](Cc3ccc(-c4ccccc4)cc3)C(=O)O)C[C@@H]3CCCC[C@@H]32)NC(=O)[C@H](CC2CCNCC2)NC(=O)[C@H](Cc2c[nH]cn2)NC1=O [Example 5] ({Malonyl(2,2-Me2,histaminyl)}-Q[hArg][Pip][dR]LEH[Ala(piperidin-4-yl)]K[Oic][Phe(4-Br)]P[dBip]-OH; lactam 6-9)			
